Results: US10245275B2 (ViiV HEALTHCARE UK (NO.4) LIMITED, priority 2014, dated 2019)
Like-named read-outs stand apart in the source and are kept apart here.

Columns and labels:
[1] = system: WT (wild-type HIV virus; recombinant NL4-3 virus); assay: microbe, parasite or virus in culture; type: cell-based, HIV-1
Experimental: (§1) MT-2 cells and 293T cells were obtained from the NIH AIDS Research and Reference Reagent Program. MT-2 cells were propagated in RPMI 1640 media supplemented with 10% heat-inactivated fetal bovine serum, […]. The 293T cells were propagated in DMEM media supplemented with 10% heat-inactivated fetal bovine serum (FBS), 100 units/mL penicillin G and 100 μg/mL streptomycin. […] A recombinant NL4-3 virus, in which a section of the nef gene from NL4-3 was replaced with the Renilla luciferase gene, was used as a reference virus. In addition, residue Gag P373 was converted to P373S. […] Transfections were performed in 293T cells using LipofectAMINE PLUS from Invitrogen (Carlsbad, Calif.), according to manufacturer's instruction. The virus was titered in MT-2 cells using luciferase enzyme activity as a marker. Luciferase was quantitated using the Dual Luciferase kit from Promega (Madison, Wis.), with modifications to the manufacturer's protocol. The diluted Passive Lysis solution was pre-mixed with the re-suspended Luciferase Assay Reagent and the re-suspended Stop & Glo Substrate (2:1:1 ratio). Fifty (50) μL of the mixture was added to each aspirated well on assay plates and luciferase activity was measured immediately on a Wallac TriLux (Perkin-Elmer). Antiviral activities of inhibitors toward the recombinant virus were quantified by measuring luciferase activity in cells infected for 4-5 days with NLRluc recombinants in the presence serial dilutions of the inhibitor.
WT refers to wild-type HIV virus. […]

[2] = system: HIV-1 NL4-3 gag A364V virus; assay: microbe, parasite or virus in culture; type: cell-based
Experimental: as §1
Both recombinant viruses were used as described above in the HIV cell culture assay for the NL4-3 virus.

[3] = Human immunodeficiency virus 1, NL43, MT2, read-out: WT (EC50, uM), Table 1 regular screen, class symbol
[4] = Human immunodeficiency virus 1, NL43, MT2, read-out: A364V (EC50, uM), Table 1 regular screen, class symbol
[5] = Human immunodeficiency virus 1, NL43, MT2, read-out: WT (EC50, uM), Table 1 regular screen, MT-2 cells, luciferase readout
[6] = Human immunodeficiency virus 1, NL43, MT2, read-out: A364V (EC50, uM), Table 1 regular screen, MT-2 cells, luciferase readout

Row | SMILES | EC50 [1, 3] | EC50 [2, 4] | EC50 [1, 5] | EC50 [2, 6]
1 | C=C(C)[C@@H]1CC[C@]2(NCCC3(O)CCC3)CC[C@]3(C)[C@H](CC[C@@H]4[C@@]5(C)CC=C(C6=CC[C@](CF)(C(=O)O)CC6)C(C)(C)[C@@H]5CC[C@]43C)[C@@H]12 [Example 2-9, (S)-1-(fluoromethyl)-4-((1R,3aS,5aR,5bR,7aR,11aS,11bR,13aR,13bR)-3a-((2-(1-hydroxycyclobutyl)ethyl)amino)-5a,5b,8,8,11a-pentamethyl-1-(prop-1-en-2-yl)-2,3,3a,4,5,5a,5b,6,7,7a,8,11,11a,11b,12,13,13a,13b-octadecahydro-1H-cyclopenta[a]chrysen-9-yl)cyclohex-3-enecarboxylic acid] | < 0.05 µM | > 0.05 µM | – | –
2 | C=C(C)[C@@H]1CC[C@]2(NCCC3(O)COC3)CC[C@]3(C)[C@H](CC[C@@H]4[C@@]5(C)CC=C(C6=CC[C@](CF)(C(=O)O)CC6)C(C)(C)[C@@H]5CC[C@]43C)[C@@H]12 [Example 2-10, (S)-1-(fluoromethyl)-4-((1R,3aS,5aR,5bR,7aR,11aS,11bR,13aR,13bR)-3a-((2-(3-hydroxyoxetan-3-yl)ethyl)amino)-5a,5b, 8,8,11a-pentamethyl-1-(prop-1-en-2-yl)-2,3,3a,4,5,5a,5b,6,7,7a,8,11,11a,11b,12,13,13a,13b-octadecahydro-1H-cyclopenta[a]chrysen-9-yl)cyclohex-3-enecarboxylic acid] | < 0.05 µM | > 0.05 µM | – | –
3 | C=C(C)[C@@H]1CC[C@]2(NCCC3(O)CCOCC3)CC[C@]3(C)[C@H](CC[C@@H]4[C@@]5(C)CC=C(C6=CC[C@](CF)(C(=O)O)CC6)C(C)(C)[C@@H]5CC[C@]43C)[C@@H]12 [Example 2-12, (S)-1-(fluoromethyl)-4-((1R,3aS,5aR,5bR,7aR,11aS,11bR,13aR,13bR)-3a-((2-(4-hydroxytetrahydro-2H-pyran-4-yl)ethyl)amino)-5a,5b, 8,8,11a-pentamethyl-1-(prop-1-en-2-yl)-2,3,3a,4,5,5a,5b,6,7,7a,8,11,11a,11b,12,13,13a,13b-octadecahydro-1H-cyclopenta[a]chrysen-9-yl)cyclohex-3-enecarboxylic acid] | – | – | 0.00201 µM | 0.348 µM
4 | C=C(C)[C@@H]1CC[C@]2(NCCC3(O)CCS(=O)(=O)CC3)CC[C@]3(C)[C@H](CC[C@@H]4[C@@]5(C)CC=C(C6=CC[C@](CF)(C(=O)O)CC6)C(C)(C)[C@@H]5CC[C@]43C)[C@@H]12 [Example 2-13, (S)-1-(fluoromethyl)-4-((1R,3aS,5aR,5bR,7aR,11aS,11bR,13aR,13bR)-3a-((2-(4-hydroxy-1,1-dioxidotetrahydro-2H-thiopyran-4-yl)ethyl)amino)-5a,5b,8,8,11a-pentamethyl-1-(prop-1-en-2-yl)-2,3,3a,4,5,5a,5b,6,7,7a,8,11,11a,11b,12,13,13a,13b-octadecahydro-1H-cyclopenta[a]chrysen-9-yl)cyclohex-3-enecarboxylic acid] | < 0.05 µM | > 0.05 µM | – | –
5 | C=C(C)[C@@H]1CC[C@]2(NCCC3(O)CCN(S(C)(=O)=O)CC3)CC[C@]3(C)[C@H](CC[C@@H]4[C@@]5(C)CC=C(C6=CC[C@](CF)(C(=O)O)CC6)C(C)(C)[C@@H]5CC[C@]43C)[C@@H]12 [Example 2-14, (S)-1-(fluoromethyl)-4-((1R,3aS,5aR,5bR,7aR,11aS,11bR,13aR,13bR)-3a-((2-(4-hydroxy-1-(methylsulfonyl)piperidin-4-yl)ethyl)amino)-5a,5b,8,8,11a-pentamethyl-1-(prop-1-en-2-yl)-2,3,3a,4,5,5a,5b,6,7,7a,8,11,11a,11b,12,13,13a,13b-octadecahydro-1H-cyclopenta[a]chrysen-9-yl)cyclohex-3-enecarboxylic acid] | – | – | 0.00256 µM | 0.0431 µM
6 | C=C(C)[C@@H]1CC[C@]2(NCCC3(O)CCN(C(C)=O)CC3)CC[C@]3(C)[C@H](CC[C@@H]4[C@@]5(C)CC=C(C6=CC[C@](CF)(C(=O)O)CC6)C(C)(C)[C@@H]5CC[C@]43C)[C@@H]12 [Example 2-15, (S)-4-((1R,3aS,5aR,5bR,7aR,11aS,11bR,13aR,13bR)-3a-((2-(1-acetyl-4-hydroxypiperidin-4-yl)ethyl)amino)-5a,5b, 8,8,11a-pentamethyl-1-(prop-1-en-2-yl)-2,3,3a,4,5,5a,5b,6,7,7a,8,11,11a,11b,12,13,13a,13b-octadecahydro-1H-cyclopenta[a]chrysen-9-yl)-1-(fluoromethyl)cyclohex-3-enecarboxylic acid] | – | – | 0.00173 µM | 0.151 µM
7 | C=C(C)[C@@H]1CC[C@]2(NCC[C@]3(O)CC[C@](C)(O)CC3)CC[C@]3(C)[C@H](CC[C@@H]4[C@@]5(C)CC=C(C6=CC[C@](CF)(C(=O)O)CC6)C(C)(C)[C@@H]5CC[C@]43C)[C@@H]12 [Example 2-16, (S)-4-((1R,3aS,5aR,5bR,7aR,11aS,11bR,13aR,13bR)-3a-((2-((trans)-1,4-dihydroxy-4-methylcyclohexyl)ethyl)amino)-5a,5b,8,8,11a-pentamethyl-1-(prop-1-en-2-yl)-2,3,3a,4,5,5a,5b,6,7,7a,8,11,11a,11b,12,13,13a,13b-octadecahydro-1H-cyclopenta[a]chrysen-9-yl)-1-(fluoromethyl)cyclohex-3-enecarboxylic acid] | – | – | 0.0021 µM | 0.0571 µM
8 | C=C(C)[C@@H]1CC[C@]2(NCC[C@]3(O)CC[C@@](C)(O)CC3)CC[C@]3(C)[C@H](CC[C@@H]4[C@@]5(C)CC=C(C6=CC[C@](CF)(C(=O)O)CC6)C(C)(C)[C@@H]5CC[C@]43C)[C@@H]12 [Example 2-18, (S)-4-((1R,3aS,5aR,5bR,7aR,11aS,11bR,13aR,13bR)-3a-((2-((cis)-1,4-dihydroxy-4-methylcyclohexyl)ethyl)amino)-5a,5b,8,8,11a-pentamethyl-1-(prop-1-en-2-yl)-2,3,3a,4,5,5a,5b,6,7,7a,8,11,11a,11b,12,13,13a,13b-octadecahydro-1H-cyclopenta[a]chrysen-9-yl)-1-(fluoromethyl)cyclohex-3-enecarboxylic acid] | – | – | 0.00165 µM | 0.854 µM
9 | C=C(C)[C@@H]1CC[C@]2(NCC[C@]3(O)CC[C@@H](S(C)(=O)=O)CC3)CC[C@]3(C)[C@H](CC[C@@H]4[C@@]5(C)CC=C(C6=CC[C@](CF)(C(=O)O)CC6)C(C)(C)[C@@H]5CC[C@]43C)[C@@H]12 [Example 2-19, (S)-1-(fluoromethyl)-4-((1R,3aS,5aR,5bR,7aR,11aS,11bR,13aR,13bR)-3a-((2-((cis)-1-hydroxy-4-(methylsulfonyl)cyclohexyl)ethyl)amino)-5a,5b,8,8,11a-pentamethyl-1-(prop-1-en-2-yl)-2,3,3a,4,5,5a,5b,6,7,7a,8,11,11a,11 b,12,13,13a,13b-octadecahydro-1H-cyclopenta[a]chrysen-9-yl)cyclohex-3-enecarboxylic acid] | – | – | 0.00135 µM | 0.0222 µM
10 | C=C(C)[C@@H]1CC[C@]2(NCC[C@]3(O)CC[C@H](S(C)(=O)=O)CC3)CC[C@]3(C)[C@H](CC[C@@H]4[C@@]5(C)CC=C(C6=CC[C@](CF)(C(=O)O)CC6)C(C)(C)[C@@H]5CC[C@]43C)[C@@H]12 [Example 2-21, (S)-1-(fluoromethyl)-4-((1R,3aS,5aR,5bR,7aR,11aS,11bR,13aR,13bR)-3a-((2-((trans)-1-hydroxy-4-(methylsulfonyl)cyclohexyl)ethyl)amino)-5a,5b, 8,8,11a-pentamethyl-1-(prop-1-en-2-yl)-2,3,3a,4,5,5a,5b,6,7,7a,8,11,11a,11b,12,13,13a,13b-octadecahydro-1H-cyclopenta[a]chrysen-9-yl)cyclohex-3-enecarboxylic acid] | < 0.05 µM | > 0.05 µM | – | –
11 | C=C(C)[C@@H]1CC[C@]2(NCCC3(O)CCC(OS(C)(=O)=O)CC3)CC[C@]3(C)[C@H](CC[C@@H]4[C@@]5(C)CC=C(C6=CC[C@](CF)(C(=O)O)CC6)C(C)(C)[C@@H]5CC[C@]43C)[C@@H]12 (stereo partly drawn) [Example 2-22, (S)-1-(fluoromethyl)-4-((1R,3aS,5aR,5bR,7aR,11aS,11bR,13aR,13bR)-3a-((2-(1-hydroxy-4-((methylsulfonyl)oxy)cyclohexyl)ethyl)amino)-5a,5b,8,8,11a-pentamethyl-1-(prop-1-en-2-yl)-2,3,3a,4,5,5a,5b,6,7,7a,8,11,11a,11b,12,13,13a,13b-octadecahydro-1H-cyclopenta[a]chrysen-9-yl)cyclohex-3-enecarboxylic acid] | – | – | 0.00315 µM | 0.107 µM
